From patent publication US11286268B1, “EIF4E-inhibiting compounds and methods” (EFFECTOR THERAPEUTICS, INC., priority 2019, dated 2022)
Read-outs that look alike come from different tables or passages of the source.

Biological target: recombinant eIF4E (Homo sapiens (Human), UniProt P06730)
Experiment: Fluorescence polarization competition assay for eIF4E binding potency
How it was run: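 Competition of test compound against 20 nM EDA-m^7GDP-ATTO-550 for 75 nM recombinant eIF4E, pre-incubated 5 min, in 20 mM Tris pH 7.5, 100 mM NaCl, 1 mM DTT, 0.02% Tween-20, 1% DMSO. Equilibrated 30 min at room temperature, dark; fluorescence polarization read. IC50 from 8-point, 3-fold dilution series.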

[1] = fluorescence polarization competition, 75 nM recombinant eIF4E, 20 nM EDA-m7GDP-ATTO-550, IC50 class, read-out: elF4E FP
[2] = inhibition of eIF4E/EDA-m7GDP-ATTO-550 binding by 50%, Table 4B calculated values, read-out: IC50
[3] = inhibition of eIF4E/EDA-m7GDP-ATTO-550 binding, calculated IC50 values, Table 4B, read-out: IC50

Chain of recombinant eIF4E (P06730 whole entry): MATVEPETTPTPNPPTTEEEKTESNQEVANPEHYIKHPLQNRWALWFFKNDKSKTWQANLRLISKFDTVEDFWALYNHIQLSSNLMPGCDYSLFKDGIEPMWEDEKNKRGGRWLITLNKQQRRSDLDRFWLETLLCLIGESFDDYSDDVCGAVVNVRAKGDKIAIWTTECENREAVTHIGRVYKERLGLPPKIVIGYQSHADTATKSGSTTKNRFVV

SMILES	IC50 [1] [nM]	IC50 [2] [nM]	IC50 [3] [nM]
Cc1cc(-c2cc(Cl)ccc2OCCn2c(C)nc3cnc(N4CC(OC(C)(C)C)C4)c(C#N)c3c2=O)c2scc(C(=O)O)c2n1 [compound 1045]	< 50	38.2	–
Cc1cc(-c2cc(Cl)ccc2OCCn2c(C)nc3cnc(-c4ccccc4C)c(C#N)c3c2=O)c2scc(C(=O)O)c2n1 [compound 944]	< 50	46.2	–
Cc1cc(-c2cc(Cl)ccc2OCCn2c(C)nc3cc(Cl)c(N4CCCC4=O)c(C#N)c3c2=O)c2scc(C(=O)O)c2n1 [compound 697]	< 50	10.2	–
CCc1ncc2nc(C)n(CCOc3ccc(Cl)cc3-c3cc(C)nc4c(C(=O)O)csc34)c(=O)c2c1C#N [compound 923]	< 50	3.71	–
N#Cc1cc(C(F)F)cc2ncn(CCOc3ccc(Cl)cc3-c3cccc(C(=O)O)c3)c(=O)c12 [compound 139]	< 50	34.6	–
Cc1nc2cnc(N3CCN(C)C(CF)C3)c(C#N)c2c(=O)n1CC#Cc1ccc(Cl)cc1-c1ccnc2c(C(=O)O)csc12 (centres unmarked) [compound 1459]	–	–	20.7
Cc1nc2cnc(N(C)C3CCN(C4CC(F)(F)C4)CC3)c(C#N)c2c(=O)n1CC#Cc1ccc(Cl)cc1-c1ccnc2c(C(=O)NS(=O)(=O)C3CC3)csc12 [compound 1809]	–	–	7.57
Cc1ccc(-c2c(C(F)(F)F)cc3nc(C)n(CCOc4ccc(Cl)cc4-c4cc(C)nc5c(C(=O)O)csc45)c(=O)c3c2C#N)cn1 [compound 1910]	–	–	47.4
Cc1ccc(-c2cc(Cl)ccc2OCCn2c(C)nc3cc(C(F)(F)F)c(CN4CCN(C)CC4)c(C#N)c3c2=O)c2scc(C(=O)O)c12 [compound 719]	< 50	28.5	–
N#Cc1cc2c(=O)n(CCOc3ccc(Cl)cc3-c3cc(C(=O)O)cc(F)c3F)cnc2cn1 [compound 89]	> 1000	> 3000	–
N#Cc1ncc(CCOc2ccc(Cl)cc2-c2cccc(C(=O)O)c2)c2c(=O)[nH]c(Nc3ccccc3)nc12 [compound 179]	< 50	20.6	–
Cc1ncc(-c2cc(Cl)ccc2OCCn2c(C)nc3cnc(C4CC4)c(C#N)c3c2=O)c2scc(C(=O)O)c12 [compound 900]	< 50	11.2	–
Cc1nc2cnc(N(C)C3CCN([C@H]4C[C@H](OC(F)F)C4)CC3)c(C#N)c2c(=O)n1CC#Cc1ccc(Cl)cc1-c1ccnc2c(C(=O)NS(C)(=O)=O)csc12 [compound 1761]	–	–	5.65
Cc1nc2cc(C#N)c(C(F)F)c(C#N)c2c(=O)n1CCOc1ccc(Cl)cc1-c1cccc(C(=O)O)c1 [compound 63]	< 50	25.8	–
Cc1nc2cc(C(F)(F)F)cc(C#N)c2c(=O)n1CCOc1ccncc1-c1ccnc2c(C(=O)O)csc12 [compound 285]	50 to 1000	72.5	–
Cc1nc2cnc(N3CC4(CC(N(C)C5CC5)C4)C3)c(C#N)c2c(=O)n1CC#Cc1ccc(Cl)cc1-c1ccnc2c(C(=O)O)csc12 [compound 830]	< 50	12.8	–
Cc1cc(-c2cc(Cl)ccc2OCCn2c(C)nc3cc(C(F)(F)F)c(CCCN(C)C)c(C#N)c3c2=O)c2scc(C(=O)O)c2n1 [compound 709]	50 to 1000	56.7	–
Cc1cc(-c2cc(Cl)ccc2OCCn2c(C)nc3cc(C(F)(F)F)c(-c4ccncn4)nc3c2=O)c2scc(C(=O)O)c2n1 [compound 767]	< 50	7.51	–
COc1ccc(C#N)c2c(=O)n(CCOc3ccc(Cl)cc3-c3ccnc4c(C(=O)O)csc34)c(C)nc12 [compound 403]	< 50	12.6	–
Cc1nc2cnc(N(C)C3[C@@H]4CC[C@H]3CN(CC(C)(F)F)C4)c(C#N)c2c(=O)n1CC#Cc1ccc(Cl)cc1-c1ccnc2c(C(=O)O)csc12 (some centres unmarked) [compound 1575]	–	–	14.7
Cc1nc2cc(C(F)(F)F)cc(C#N)c2c(=O)n1CCOc1ccc(Cl)cc1-c1ccc(F)c2c(C(=O)O)csc12 [compound 122]	< 50	24.4	–
Cc1nc2cnc(N(C)C3CCN(CCOC(F)F)CC3)c(C#N)c2c(=O)n1CC#Cc1ccc(Cl)cc1-c1ccnc2c(C(=O)O)csc12 [compound 1503]	–	–	19.2
Cc1nc2cc(C(F)(F)F)c(C#CCN)c(C#N)c2c(=O)n1CCOc1ccc(Cl)cc1-c1ccnc2c(C(=O)O)csc12 [compound 1260]	–	–	13
Cc1cc(-c2cc(Cl)ccc2OCCn2c(C)nc3cc(CF)c(C)c(C#N)c3c2=O)c2scc(C(=O)O)c2n1 [compound 724]	< 50	37.7	–
Cc1c(Cl)c2cc(C(F)(F)F)cc(C#N)c2c(=O)n1CCOc1ccc(Cl)cc1-c1ccnc2c(C(=O)O)csc12 [compound 218]	< 50	16.9	–
Cc1nc2cnc(N3CC4(C3)CN(C3CC3)C4)c(C#N)c2c(=O)n1CCOc1ccc(Cl)cc1-c1ccnc2c(C(=O)O)csc12 [compound 1314]	–	–	18.1
Cc1cc(-c2cc(Cl)ccc2OCCn2c(C)nc3cc(-c4cccnc4)cc(C#N)c3c2=O)c2scc(C(=O)O)c2n1 [compound 654]	< 50	3.12	–

SMILES	IC50 [1] [nM]	IC50 [2] [nM]	IC50 [3] [nM]
CCN(c1ncc2nc(C)n(CC#Cc3ccc(Cl)cc3-c3ccnc4c(C(=O)NS(=O)(=O)c5cccnc5)csc34)c(=O)c2c1C#N)C1CCN([C@H]2C[C@@H](OC(F)(F)F)C2)CC1 [compound 1780]	–	–	10.9
Cc1nc2cnc(N3CCC(N(CC(F)F)C4COC4)CC3)c(C#N)c2c(=O)n1CC#Cc1ccc(Cl)cc1-c1ccnc2c(C(=O)NS(=O)(=O)CC(F)F)csc12 [compound 1591]	–	–	36.2
Cc1nc2cnc(N(C)C3CCN(C4(C(F)(F)F)CC4)CC3)c(C#N)c2c(=O)n1CC#Cc1ccc(Cl)cc1-c1ccnc2c(C(=O)O)csc12 [compound 1530]	–	–	33.5
Cc1cc(-c2cc(Cl)ccc2OCCn2c(C)nc3cc(F)c(CN4CCN(C)CC4)c(C#N)c3c2=O)c2scc(C(=O)O)c2n1 [compound 366]	< 50	6.66	–
Cc1cc(-c2cc(Cl)ccc2OCCn2c(C)nc3c(C4CC4)ncc(Cl)c3c2=O)c2scc(C(=O)O)c2n1 [compound 1963]	–	–	241
O=C(O)c1cccc(-c2cc(Cl)ccc2OCCn2cnc3ncncc3c2=O)c1 [compound 17]	50 to 1000	721	–
Cc1cc(-c2cc(Cl)ccc2C#CCn2c(C)nc3cnc(C#N)cc3c2=O)c2scc(C(=O)O)c2n1 [compound 599]	50 to 1000	61.6	–
O=C(O)c1cccc(-c2cc(Cl)ccc2OCCn2cnc3ccccc3c2=O)c1 [compound 11]	> 1000	6850	–
Cc1nc2cnc(N3CCN(CCF)CC3)c(C#N)c2c(=O)n1CC#Cc1ccc(Cl)cc1-c1ccnc2c(C(=O)NS(C)(=O)=O)csc12 [compound 1488]	–	–	12.3
Cc1nc2cc(C(F)(F)F)cc(C#N)c2c(=O)n1CCOc1ccc(Cl)cc1-c1ccc(F)c2c(C(=O)O)csc12 [compound 2018]	–	–	24.4
Cc1nc2cc(C(F)(F)F)c(C(F)F)c(C#N)c2c(=O)n1CCOc1ccc(Cl)cc1-c1cccc(C(=O)O)c1 [compound 59]	< 50	21.5	–
Cc1nc2cc(C(F)(F)F)cc(C#N)c2c(=O)n1CCOc1ccc(Cl)cc1-c1cc(CCN)nc2c(C(=O)O)csc12 [compound 1374]	–	–	56.1
Cc1nc2cnc(C3CCC(F)(F)CC3)c(C#N)c2c(=O)n1CC#Cc1ccc(Cl)cc1-c1ccnc2c(C(=O)O)csc12 [compound 1481]	–	–	20.8
Cc1nc2cc(OC(F)F)cc(C#N)c2c(=O)n1CCOc1ccc(Cl)cc1-c1ccnc2c(C(=O)O)csc12 [compound 1940]	–	–	34.9
Cc1nc2cnc(N(C)C3CCN(CC(C)(F)F)CC3)c(C#N)c2c(=O)n1CC#Cc1ccc(Cl)cc1-c1ccnc2c(C(N)=O)csc12 [compound 1596]	–	–	654
Cc1nc2cnc(N(C)C3CCN(C4CC4)C4(CC4)C3)c(C#N)c2c(=O)n1CC#Cc1ccc(Cl)cc1-c1ccnc2c(C(=O)O)csc12 (centres unmarked) [compound 1496]	–	–	32.5
COC(=O)c1csc2c(-c3cc(Cl)ccc3OCCn3c(C)nc4cc(C(F)(F)F)c(Cl)c(C#N)c4c3=O)ccnc12 [compound 1905]	–	–	881
Cc1nc2ccc(F)c(C#N)c2c(=O)n1CCOc1ccc(Cl)cc1-c1ccnc2c(C(=O)O)csc12 [compound 245]	< 50	25.6	–
Cc1nc2cnc(/C=C/CN3CC(F)C3)c(C#N)c2c(=O)n1CCOc1ccc(Cl)cc1-c1ccnc2c(C(=O)O)csc12 [compound 1122]	< 50	14.6	–
C#Cc1c(C(=O)O)cccc1-c1cc(Cl)ccc1OCCn1c(C)nc2cc(C(F)(F)F)cc(C#N)c2c1=O [compound 156]	< 50	4.2	–
Cc1nc2cnc(N3CC4(CN(CC(F)F)C4)C3)c(C#N)c2c(=O)n1CC#Cc1ccc(Cl)cc1-c1ccnc2c(C(=O)O)csc12 [compound 893]	< 50	20.1	–
Cc1cc(-c2cc(Cl)ccc2OCCn2c(C)nc3cnc(N(C)CC(F)(F)F)c(C#N)c3c2=O)c2scc(C(=O)O)c2n1 [compound 971]	50 to 1000	57.8	–
COC1CN(c2ncc3nc(C)n(CCOc4ccc(Cl)cc4-c4cc(C)nc5c(C(=O)O)csc45)c(=O)c3c2C#N)C1 [compound 1010]	< 50	5.29	–
Cc1cc(-c2cc(Cl)ccc2OCCn2c(C)nc3cc(C(F)(F)F)c(Cl)c(C#N)c3c2=O)c2scc(C(=O)O)c2n1 [compound 558]	< 50	27.2	–
C#Cc1nc2c(=O)n(CCOc3ccc(Cl)cc3-c3cc(C)nc4c(C(=O)O)csc34)c(C)nc2cc1C(F)(F)F [compound 783]	< 50	14.8	–
CCc1cc(-c2cc(Cl)ccc2OCCn2c(C)nc3c(Cl)nc(C4CC4)c(C#N)c3c2=O)c2scc(C(=O)O)c2n1 [compound 1198]	< 50	–	13
